Measured values taken from PubChem BioAssay (NCI).
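Compound exposure: 48 hours, 5 concentrations, 96-well plates. Abbreviation: GI50, concentration required for 50% inhibition of growth. TGI is the concentration that stops growth completely.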

How the values were obtained:
Test in all cases: NCI-60 cell line screen, 48 h
NCI-H460 lung = system: NCI-H460 lung
786-0 renal = system: 786-0 renal
M14 melanoma = system: M14 melanoma
RXF 393 renal = system: RXF 393 renal
HCC-2998 colon = system: HCC-2998 colon
HCT-116 colon = system: HCT-116 colon
SNB-19 CNS = system: SNB-19 CNS
SW-620 colon = system: SW-620 colon
KM20L2 colon = system: KM20L2 colon
OVCAR-5 ovarian = system: OVCAR-5 ovarian
SK-MEL-28 melanoma = system: SK-MEL-28 melanoma
NCI-H23 lung = system: NCI-H23 lung
HCT-15 colon = system: HCT-15 colon
U251 CNS = system: U251 CNS
HOP-92 NSCLC = system: HOP-92 NSCLC
UACC-62 melanoma = system: UACC-62 melanoma
TK-10 renal = system: TK-10 renal
MALME-3M melanoma = system: MALME-3M melanoma
HL-60(TB) leukemia = system: HL-60(TB) leukemia
SK-OV-3 ovarian = system: SK-OV-3 ovarian
LXFL 529 NSCLC = system: LXFL 529 NSCLC
UACC-257 melanoma = system: UACC-257 melanoma
EKVX NSCLC = system: EKVX NSCLC
HOP-62 NSCLC = system: HOP-62 NSCLC
SN12C renal = system: SN12C renal
SK-MEL-5 melanoma = system: SK-MEL-5 melanoma
A549 NSCLC = system: A549 NSCLC
OVCAR-4 ovarian = system: OVCAR-4 ovarian
SNB-75 CNS = system: SNB-75 CNS
K-562 leukemia = system: K-562 leukemia
HOP-18 NSCLC = system: HOP-18 NSCLC
SF-268 CNS = system: SF-268 CNS
MOLT-4 leukemia = system: MOLT-4 leukemia
ACHN renal = system: ACHN renal
DLD-1 colon = system: DLD-1 colon
NCI-H226 lung = system: NCI-H226 lung
IGROV1 ovarian = system: IGROV1 ovarian
CCRF-CEM leukemia = system: CCRF-CEM leukemia
KM12 colon = system: KM12 colon
LOX IMVI melanoma = system: LOX IMVI melanoma
DMS 114 small cell lung = system: DMS 114 small cell lung
SF-295 CNS = system: SF-295 CNS
COLO 205 colon = system: COLO 205 colon
RPMI-8226 leukemia = system: RPMI-8226 leukemia
UO-31 renal = system: UO-31 renal
SK-MEL-2 melanoma = system: SK-MEL-2 melanoma
NCI-H522 lung = system: NCI-H522 lung
A498 renal = system: A498 renal
DMS 273 small cell lung = system: DMS 273 small cell lung
CAKI-1 renal = system: CAKI-1 renal
OVCAR-8 ovarian = system: OVCAR-8 ovarian
OVCAR-3 ovarian = system: OVCAR-3 ovarian
HT29 colon = system: HT29 colon
SF-539 CNS = system: SF-539 CNS

CC(=O)Nc1ccc(/C=C2\N=C(c3ccccc3)OC2=O)cc1
TGI (NCI-H460 lung): > 100 µM
TGI (786-0 renal): > 100 µM
TGI (M14 melanoma): > 100 µM
TGI (RXF 393 renal): > 100 µM
TGI (HCC-2998 colon): > 100 µM
TGI (HCT-116 colon): > 100 µM
TGI (SNB-19 CNS): > 100 µM
TGI (SW-620 colon): > 100 µM
TGI (KM20L2 colon): > 100 µM
TGI (OVCAR-5 ovarian): > 100 µM
TGI (SK-MEL-28 melanoma): > 100 µM
TGI (NCI-H23 lung): > 100 µM
TGI (HCT-15 colon): > 100 µM
TGI (U251 CNS): > 100 µM
TGI (HOP-92 NSCLC): > 100 µM
TGI (UACC-62 melanoma): > 60.1 µM
TGI (TK-10 renal): > 100 µM
TGI (MALME-3M melanoma): > 100 µM
TGI (HL-60(TB) leukemia): > 100 µM
TGI (SK-OV-3 ovarian): > 100 µM
TGI (LXFL 529 NSCLC): > 100 µM
TGI (UACC-257 melanoma): > 100 µM
TGI (EKVX NSCLC): > 100 µM
TGI (HOP-62 NSCLC): > 100 µM
TGI (SN12C renal): > 100 µM
TGI (SK-MEL-5 melanoma): > 100 µM
TGI (A549 NSCLC): > 100 µM
TGI (OVCAR-4 ovarian): > 100 µM
TGI (SNB-75 CNS): > 100 µM
TGI (K-562 leukemia): > 100 µM
TGI (HOP-18 NSCLC): > 100 µM
TGI (SF-268 CNS): > 100 µM
TGI (MOLT-4 leukemia): > 100 µM
TGI (ACHN renal): > 100 µM
TGI (DLD-1 colon): > 100 µM
TGI (NCI-H226 lung): > 100 µM
TGI (IGROV1 ovarian): > 31.6 µM
TGI (CCRF-CEM leukemia): > 100 µM
TGI (KM12 colon): > 100 µM
TGI (LOX IMVI melanoma): > 100 µM
TGI (DMS 114 small cell lung): > 100 µM
TGI (SF-295 CNS): > 100 µM
TGI (COLO 205 colon): > 100 µM
TGI (RPMI-8226 leukemia): > 100 µM
TGI (UO-31 renal): > 100 µM
TGI (SK-MEL-2 melanoma): > 100 µM

CC(=O)[CH-]C(=O)c1ccccc1.CC(=O)[CH-]C(=O)c1ccccc1.CC(C)CCC[C@H](C)C1CCC2[C@@H]3CC=C4C[C@@H]([O-])CC[C@]4(C)C3CC[C@@]21C.CC(C)CCC[C@H](C)C1CCC2[C@@H]3CC=C4C[C@@H]([O-])CC[C@]4(C)C3CC[C@@]21C.Cl.[Ti+4] (stereo not given in full)
GI50 (NCI-H460 lung): > 25 µM
TGI (NCI-H460 lung): > 25 µM
GI50 (786-0 renal): > 25 µM
TGI (786-0 renal): > 25 µM
GI50 (NCI-H522 lung): > 25 µM
TGI (NCI-H522 lung): > 25 µM
GI50 (M14 melanoma): > 25 µM
TGI (M14 melanoma): > 25 µM
GI50 (RXF 393 renal): > 25 µM
TGI (RXF 393 renal): > 25 µM
GI50 (HCC-2998 colon): > 25 µM
TGI (HCC-2998 colon): > 25 µM
GI50 (HCT-116 colon): > 25 µM
TGI (HCT-116 colon): > 25 µM
GI50 (A498 renal): > 25 µM
TGI (A498 renal): > 25 µM
GI50 (SNB-19 CNS): > 25 µM
TGI (SNB-19 CNS): > 25 µM
GI50 (DMS 273 small cell lung): > 25 µM
TGI (DMS 273 small cell lung): > 25 µM
GI50 (SW-620 colon): > 25 µM
TGI (SW-620 colon): > 25 µM
GI50 (KM20L2 colon): > 25 µM
TGI (KM20L2 colon): > 25 µM
GI50 (OVCAR-5 ovarian): > 25 µM
TGI (OVCAR-5 ovarian): > 25 µM
GI50 (SK-MEL-28 melanoma): > 25 µM
TGI (SK-MEL-28 melanoma): > 25 µM
GI50 (NCI-H23 lung): > 25 µM
TGI (NCI-H23 lung): > 25 µM
GI50 (HCT-15 colon): > 25 µM
TGI (HCT-15 colon): > 25 µM
GI50 (U251 CNS): > 25 µM
TGI (U251 CNS): > 25 µM
GI50 (UACC-62 melanoma): > 25 µM
TGI (UACC-62 melanoma): > 25 µM
GI50 (TK-10 renal): > 25 µM
TGI (TK-10 renal): > 25 µM
GI50 (MALME-3M melanoma): 21.4 µM
TGI (MALME-3M melanoma): > 25 µM
GI50 (CAKI-1 renal): > 25 µM
TGI (CAKI-1 renal): > 25 µM
GI50 (HL-60(TB) leukemia): 13.7 µM
TGI (HL-60(TB) leukemia): > 25 µM
GI50 (SK-OV-3 ovarian): > 25 µM
TGI (SK-OV-3 ovarian): > 25 µM
GI50 (LXFL 529 NSCLC): > 25 µM
TGI (LXFL 529 NSCLC): > 25 µM
GI50 (OVCAR-8 ovarian): > 25 µM
TGI (OVCAR-8 ovarian): > 25 µM
GI50 (UACC-257 melanoma): > 25 µM
TGI (UACC-257 melanoma): > 25 µM
GI50 (EKVX NSCLC): > 25 µM
TGI (EKVX NSCLC): > 25 µM
GI50 (HOP-62 NSCLC): > 25 µM
TGI (HOP-62 NSCLC): > 25 µM
GI50 (SN12C renal): > 25 µM
TGI (SN12C renal): > 25 µM
GI50 (SK-MEL-5 melanoma): > 25 µM
TGI (SK-MEL-5 melanoma): > 25 µM
GI50 (A549 NSCLC): > 25 µM
TGI (A549 NSCLC): > 25 µM
GI50 (OVCAR-3 ovarian): > 25 µM
TGI (OVCAR-3 ovarian): > 25 µM
GI50 (OVCAR-4 ovarian): > 25 µM
TGI (OVCAR-4 ovarian): > 25 µM
GI50 (SNB-75 CNS): 22.1 µM
TGI (SNB-75 CNS): > 25 µM
GI50 (K-562 leukemia): > 25 µM
TGI (K-562 leukemia): > 25 µM
GI50 (HT29 colon): > 25 µM
TGI (HT29 colon): > 25 µM
GI50 (HOP-18 NSCLC): > 25 µM
TGI (HOP-18 NSCLC): > 25 µM
GI50 (SF-268 CNS): > 25 µM
TGI (SF-268 CNS): > 25 µM
GI50 (MOLT-4 leukemia): > 25 µM
TGI (MOLT-4 leukemia): > 25 µM
GI50 (ACHN renal): > 25 µM
TGI (ACHN renal): > 25 µM
GI50 (DLD-1 colon): > 25 µM
TGI (DLD-1 colon): > 25 µM
GI50 (NCI-H226 lung): > 25 µM
TGI (NCI-H226 lung): > 25 µM
GI50 (IGROV1 ovarian): > 25 µM
TGI (IGROV1 ovarian): > 25 µM
GI50 (CCRF-CEM leukemia): > 25 µM
TGI (CCRF-CEM leukemia): > 25 µM
GI50 (KM12 colon): > 25 µM
TGI (KM12 colon): > 25 µM
GI50 (LOX IMVI melanoma): > 25 µM
TGI (LOX IMVI melanoma): > 25 µM
GI50 (SF-539 CNS): > 25 µM
TGI (SF-539 CNS): > 25 µM
GI50 (SF-295 CNS): > 25 µM
TGI (SF-295 CNS): > 25 µM
GI50 (COLO 205 colon): > 25 µM
TGI (COLO 205 colon): > 25 µM
GI50 (RPMI-8226 leukemia): > 25 µM
TGI (RPMI-8226 leukemia): > 25 µM
GI50 (UO-31 renal): > 25 µM
TGI (UO-31 renal): > 25 µM
GI50 (SK-MEL-2 melanoma): > 25 µM
TGI (SK-MEL-2 melanoma): > 25 µM
